{"source": "patent US20100330049A1", "about": "“METHOD FOR GENERATING ISLET BETA CELLS FROM DEDIFFERENTIATED EXOCRINE PANCREATIC CELLS” (Vrije Universiteit Brussel, priority 2008, published 2010)", "assay_type_in_all_cases": "cell-based, rat", "key": {"[1]": {"system": "acinar cells", "assay": "acinar-to-beta cell conversion in monolayer culture with differentiation factors (immunocytochemical cell counts)", "details": "for toxic effects on the epithelial monolayers: Jagged1 2 μg/ml, Dll4 5 μg/ml, 3 days culture; for beta cell neogenesis (acino-insular conversion): exposure of EGF and LIF treated cells to Notch1 ligands; for expression of Ngn3, Pdx1 and insulin / reduction of the number of newly formed beta cells: ligands immobilized on culture plates, EGF/LIF-treated acinar cells; for expression of Pdx1 during 72 h exposure to EGF and LIF (FIG. 2C) / expression of insulin during 72 h exposure to EGF and LIF (FIG. 2E) / re-expression of Ngn3 during 72 h exposure to EGF and LIF (FIG. 2A): n=7, compared to EGF and LIF controls", "excerpt": "Male 10-12 week old Wistar rats (Charles River Laboratories) weighing 250-300 g were used for the isolation of cells from the pancreas. Pancreata were partially dissociated with collagenase and exocrine acini were purified by centrifugal elutriation as published before (Rooman et al., 2000 Diabetologia 43:907-914). All animal experimentation was approved by the Ethical Committee of the Free University of Brussels.\nAcinar cells were pre-cultured for 4 days in bacteriological Petri dishes (Nunc) in suspension culture in RPMI-1640 Glutamax-I medium supplemented with 10% fetal bovine serum (FBS, Invitrogen), penicillin (75 mg/l) (Continental Pharma) and antibiotics (Sigma, St Louis, Mo., USA). Geneticin Sulphate (50 μg/ml) (Sigma) was used to suppress fibroblast overgrowth in the culture. Medium was replaced daily during this pre-culture period. At the end of the pre-culture, cells were treated with alloxan (10 mM, Sigma) for 10 min at 37° C. to remove contaminating beta cells, and transferred to 24-well plates (Falcon, BD Biosciences) to form adherent cultures. Adherent monolayers were further cultured with RPMI supplemented with 1% FBS and antibiotics (controls). For growth factor stimulation of neogenesis this medium was supplemented with 50 ng/ml human recombinant epidermal growth factor (EGF) (Sigma,) and 40 ng/ml recombinant mouse leukemia inhibitory factor (LIF) (Sigma) (Baeyens et al. Diabetologia 48:49-57.). Stimulation of Notch signal transduction was performed using the recombinant human ligands Jagged1 (2 μg/ml, R&D Systems) and Dll4 (5 μg/ml, R&D Systems). For effective stimulation, the ligands were immobilized to the bottom of the multiwell plates prior to monolayer formation. Cell monolayers were analyzed after a culture period of 3 days in the latter media. […] Notch signaling inhibition was achieved using a recombinant form of the rat Notch1 extracellular domain (Notch1-EC, 10 μg/ml, R&D Systems). […] Proliferation was performed by bromo-deoxyuridin (BrdU) (Sigma) pulse labeling of 6 hours.\nImmunocytochemical staining of the monolayers was performed directly in the 24-well plates. For this purpose, the cell monolayers were fixed for 10 min with 4% buffered formaldehyde followed by 20 min methanol (−20° C.) for cell permeabilization. Tissues were fixed with the same fixative for 4 hours and processed for paraffin embedding. Paraffin sections were used for immunostaining as described (Bouwens et al. 1994 Diabetes 43:1279-1283). Primary antibodies used in this study are polyclonal anti-insulin (C. Van Schravendijk, VUB, Brussels) (Bouwens et al. 1994 Diabetes 43:1279-1283; Bouwens and De 1996. J. Histochem. Cytochem. 44:947-951), polyclonal anti-rat C-peptide-I (O. D. Madsen, Hagedorn Research Institute, Gentofte, Denmark) (Blume et al. 1992. Mol. Endocrinol. 6:299-307), polyclonal anti-Pdx1 (O. D. Madsen) (Rooman et al. 2000 Diabetologia 43:907-914), polyclonal anti-Ngn3 (Schwitzgebel et al. 2000. Development 127:3533-3542), monoclonal anti-cytokeratin-20 (CK20) (Novocastra) (Bouwens et al. 1994 Diabetes 43:1279-1283; Bouwens and De 1996 J. Histochem. Cytochem. 44:947-951), monoclonal anti-synaptophysin (Novocastra), polyclonal anti-MafA (Bethyl Laboratories) (Nishimura et al. 2006 Dev. Biol. 293:526-539), polyclonal anti-Glut2 (Wak-Chemie), polyclonal anti-Mist1 (SF Konieczny) (Pin et al. 2000 Anat. Rec. 259:157-167), polyclonal anti-luciferase (Promega Benelux B. V.), polyclonal anti-IAPP (Advanced Chemtech), polyclonal anti-ChromograninA (Tebu-Bio), anti-BrdU (MP Biomedicals) and polyclonal anti-α-amylase (Sigma). Secondary antibodies conjugated with fluorescein isothiocyanate, tetramethylrodamine isothiocyanate or Cy5 (Jackson Immunoresearch) were used as described previously (Gu et al., 2002 Development 129:2447-2457). DNA was visualized using Hoechst 33342 (Invitrogen)."}, "[2]": {"system": "Notch1 mRNA", "assay": "knockdown efficiency of shRNA viruses, quantitative RT-PCR: Notch1 mRNA", "details": "corrected for actin, normalized to control virus Le-Scrambled-DsRed, n = 3", "excerpt": "(§1) Specific RNAi target sequences were developed using dedicated software available through the Whitehead Institute for Biomedical Research website (http://jura.wi.mit.edu/bio/) (Yuan et al. 2004 Nucleic Acids Res. 32:W130-W134). Corresponding oligo DNA molecules (Invitrogen) were cloned in the BglII and HindIII sites of the pSuper.basic vector (Oligoengine). Insert-containing clones were PCR-selected and sequenced. DNA from clones containing correct inserts was cut with EcoRI-ClaI, which released a DNA fragment containing the H1 promoter and the cloned oligo duplex, which was subsequently subcloned in the EcoRI-ClaI sites of the pTrip vector containing a DsRed reporter (Wiznerowicz and Trono 2003, J. Virol. 77:8957-8961). Screening for RNAi activity of the constructs was performed as follows: AR42J-B13 cells were plated at 70% confluency in 24 well plates at day 0. After allowing the cells to attach, 500 ng DNA of the appropriate pTrip constructs was transfected per well. After an additional 24 hours, cells were processed for quantitative RT-PCR analysis, in which 500 ng total RNA was used per condition.\n(§2) The data illustrated in Table 7 represent the efficiency of knockdown of the different shRNA viruses, measured by quantitative RT-PCR. All samples are corrected for RNA input (endogenous control: actin) and normalized to conditions transduced with control virus (Le-Scrambled-DsRed). […]"}, "[3]": {"system": "Hes1 mRNA", "assay": "knockdown efficiency of shRNA viruses, quantitative RT-PCR: Hes1 mRNA", "details": "corrected for actin, normalized to control virus Le-Scrambled-DsRed, n = 3", "excerpt": "as §1, §2"}}, "data": [{"substance": "Dll4: recombinant human Notch ligand, immobilized to the plate bottom", "values": [{"measurement": "toxic effects on the epithelial monolayers", "setting": "[1]", "result": "no toxic effects"}, {"measurement": "beta cell neogenesis (acino-insular conversion)", "setting": "[1]", "result": "near complete abrogation"}, {"measurement": "expression of Ngn3, Pdx1 and insulin", "setting": "[1]", "result": "strongly inhibited"}, {"measurement": "reduction of the number of newly formed beta cells", "setting": "[1]", "result": 80, "unit": "%"}, {"measurement": "expression of Pdx1 during 72 h exposure to EGF and LIF (FIG. 2C)", "setting": "[1]", "result": "prevents this expression"}, {"measurement": "expression of insulin during 72 h exposure to EGF and LIF (FIG. 2E)", "setting": "[1]", "result": "prevents this expression"}, {"measurement": "re-expression of Ngn3 during 72 h exposure to EGF and LIF (FIG. 2A)", "setting": "[1]", "result": "almost completely abrogates this pattern"}]}, {"substance": "Jagged1: recombinant human Notch ligand, immobilized to the plate bottom", "values": [{"measurement": "toxic effects on the epithelial monolayers", "setting": "[1]", "result": "no toxic effects"}, {"measurement": "beta cell neogenesis (acino-insular conversion)", "setting": "[1]", "result": "near complete abrogation"}, {"measurement": "expression of Ngn3, Pdx1 and insulin", "setting": "[1]", "result": "strongly inhibited"}, {"measurement": "reduction of the number of newly formed beta cells", "setting": "[1]", "result": 80, "unit": "%"}, {"measurement": "expression of Pdx1 during 72 h exposure to EGF and LIF (FIG. 2C)", "setting": "[1]", "result": "prevents this expression"}, {"measurement": "expression of insulin during 72 h exposure to EGF and LIF (FIG. 2E)", "setting": "[1]", "result": "prevents this expression"}, {"measurement": "re-expression of Ngn3 during 72 h exposure to EGF and LIF (FIG. 2A)", "setting": "[1]", "result": "almost completely abrogates this pattern"}]}, {"substance": "Le-Scrambled-DsRed: negative control RNAi lentivirus, shScrambled GGUAUCUACUAGAUGUACU (SEQ ID NO:3), DsRed reporter", "values": [{"measurement": "Notch1 mRNA expression (Mean ± SEM)", "setting": "[2]", "result": "100.0 ± 0.0"}, {"measurement": "Hes1 mRNA expression (Mean ± SEM)", "setting": "[3]", "result": "100.0 ± 0.0"}]}, {"substance": "Notch1-EC: recombinant form of the rat Notch1 extracellular domain, Notch signaling inhibitor (R&D Systems)", "values": [{"measurement": "higher number of insulin-positive cells", "setting": "[1]; Notch1-EC added to EGF and LIF", "result": 3, "unit": "fold"}, {"measurement": "cells adopting a beta cell phenotype", "setting": "[1]; acinar cell culture, 0.5% in control conditions", "result": "more than 30%"}, {"measurement": "proportion of cells positive for Ngn3, Pdx1 and insulin", "setting": "[1]; excess Notch1-EC in culture medium with EGF and LIF", "result": "marked increase"}, {"measurement": "expression of Pdx1 during 72 h exposure to EGF and LIF (FIG. 2C)", "setting": "[1]", "result": "amplifies the number of cells expressing Pdx1"}, {"measurement": "expression of insulin during 72 h exposure to EGF and LIF (FIG. 2E)", "setting": "[1]", "result": "amplifies the number of insulin-positive cells"}, {"measurement": "re-expression of Ngn3 during 72 h exposure to EGF and LIF (FIG. 2A)", "setting": "[1]", "result": "enhances the potency of the differentiation factors"}]}]}
